Structures are written as SMILES.

The test system of assay [1] is DBA/MC fibrosarcoma cells. The assay is described as follows: Inhibitory activity on proliferation of DBA/MC fibrosarcoma cells. Format: cell-based, mice. The settings on record: Mus musculus, 48 hours, read-out: Inhibitory Rate (%); for inhibition at 3 µg/mL: 3.0 μg/ml; for inhibition at 20 µg/mL: 20.0 μg/ml; for inhibition at 30 µg/mL: 30.0 μg/ml. The method, then: (§1) Moreover, the anti-tumor activities of the clavulone derivatives (I) were tested by the inhibitory activity on propagation of leukemia L-1210 cells, DBA/MC fibrosarcoma cells, and B-16 melanoma cells in mice and also apothanasia effect of mice implanted with leukemia P388 cells and Ehrlich carcinoma cells as in the following experiments.
The test compounds (clavulone derivatives) were each dissolved in ethanol and diluted with a phosphate-buffer physiological saline solution and further diluted with an eagle's MEM medium in a prescribed concentration. Said eagle's MEM medium contained 20% by weight of fetal calf serum and 0.4% by weight of lactalubumin hydrolysates.
DBA/MC Fibrosarcoma cells (cell concentration: 2.5×10^4 cells/ml) were floated on the eagle's MEM medium and cultured under the conditions of 5% CO2 in air, saturated humidity and at 37° C. for 24 hours. Thereafter, the medium was replaced with the above test compound-containing medium and then it was cultured under the same conditions for 48 hours.
Immediately after the cultivation, the DBA/MC cells were fised with methanol and stained with Giemsa solution. The stained cells were counted with a microscope, and the number of stained cells was compared with that of the control group (no test compound was added). The inhibitory rate was calculated by the following equation: [formula]

Assay [2] concerns granulation tissue. The assay is described as follows: Inhibitory effect on proliferation of granulation tissue (fertile egg method). Format: in vivo, Babcock strain chickens (fertile eggs). The settings on record: for inhibitory effect on proliferation of granulation tissue (in words): fertile egg method. As to the method:
The anti-inflammatory activity was tested by the inhibitory effect on proliferation of granulation tissue which is one of the tests for determining anti-inflammatory activity as follows:
Fertile eggs of Babcock strain chickens were incubated at 38° C. for 9 days. The shell and shell membrane were then removed according to the method of D'arcy et al (cf. D'arcy, P. F. et al, Brit. J. Pharmac. Chemother., 29, 378 (1967). A sterile filter paper disc (diameter: 9 mm) was implanted on the chorio-allantoic membrane and the opening in the shell was sealed with cellophane tape. The eggs were then reincubated for 4 days and at the end of this period, the filter paper disc with granulation tissue was dissected from the chorio-allantoic membrane and then dried at 60° C. for 12 hours. In order to assess the actual amount of granulation tissue present, the weight of filter paper disc which was used in this experiment was subtracted from the total weight of the disc plus granulation tissue.
The test compound was dissolved in an organic solvent (acetone) and 20 μl of the solution was applied on the each disc. The disc was dried and then used in this test. The mean weight of the granulation tissue in each group was compared with that of the control group which was treated with a vehicle alone.
Clavulone-1, clavulone-2, clavulone-3, clavulone-4 and clavulone-5 were used as the test compounds.

The test system of assay [3] is leukemia L-1210 cells. The assay is described as follows: Inhibitory activity on proliferation of leukemia L-1210 cells. The following applies: Mus musculus, L1210, 96 h, 4 days, read-out: Growth Rate (%) (viable cells, control = 100); for activity at 0.1 µg/mL: 0.1 μg/ml; for activity at 0.4 µg/mL: 0.4 μg/ml; for activity at 1 µg/mL: 1.0 μg/ml; for activity at 0.2 µg/mL: 0.2 μg/ml. Format: cell-based, mice. As to the method: as §1
The test compounds (clavulone-1, -2 and -3) were each dissolved in ethanol and diluted with a medium (RPMI-1640) in a prescribed concentration. Said RPMI-1640 medium contained 10% by weight of fetal calf serum.
Leukemia L-1210 cells (cell concentration: 1×10^5 cells/ml) were inoculated in the RPMI-1640 medium containing the test compound (0.1 to 4.0 μg/ml) and cultured under the conditions of 5% CO2 in air, saturated humidity and at 37° C. for 4 days.
Immediately after the cultivation, the L-1210 cells were stained with trypan blue. Number of viable cells (i.e. cells which were not stained with trypan blue) was counted, and the number of viable cells was compared with that in the control group (no drug was added). The results are shown in Table 2, wherein the number of viable cells in the control group was counted as 100.

Assay [4] deals with Ehrlich carcinoma cells. The assay is described as follows: Anti-tumor effect in mice implanted with Ehrlich carcinoma cells. It counts as in vivo, female ICR strain mice. The settings on record: for MST / Survivors on 60th day/number of mice in one group / I.L.S. (%): 1st-4th day; for I.L.S. (%): 25 or more = effective. The method, then: Six or twelve female ICR strain mice (6 weeks old, weighing 22.2-26.8 g) were used.
The test drug was prepared by mixing clavulone-2 with gum arabic, suspending the mixture in a sterilized saline solution in a concentration of clavulone-2 of 10, 18 or 25 mg/10 ml.
Ehrlich carcinoma cells were serially passaged in an ascites form in ICR strain mice. The tumor cells were harvested from ICR strain mice on 6th day after inoculation, washed with and resuspended in Hank's solution in a concentration of 5×10^5 cells/ml.
Tumor cells (1×10^5 cells/0.2 ml/mouse) were implanted intraperitoneally. The test drug (clavulone-2, 10 ml/kg) was injected intraperitoneally once a day from first to 4th day after the implantation of tumor cells. Control mice were injected with a saline solution in the same as above.
The anti-tumor effect of clavulone-2 was evaluated by means of I.L.S. (%) which was calculated by the following equation: [formula]

In assay [5] the test system is leukemia P388 cells. The assay is described as follows: Apothanasia effect in mice implanted with leukemia P388 cells. It counts as in vivo, BDFI male mice. The settings on record: intraperitoneal, once a day, 1st-4th and 7th-11th day. As to the method:
Clavulone-2 was mixed with gum arabic in the ratio of 1.6:1 by weight and was mixed with a physiological saline solution in a prescribed concentration to give a test compound solution.
BDFI male mice (5 weeks old, weighing 22.0-24.4 g, 6 animals per group) were used.
Each mice was inoculated intraperitoneally with leukemia P388 cells (cell concentration: 1×10^7 cells/ml) in 0.2 ml Hank's solution. A solution of a test compound in a physiological saline solution was injected intraperitoneally once a day from the first day to 4th day and also from 7th day to 11th day after inoculation of the tumor cells. The control group was given with a vehicle (a physiological saline solution) alone in the same way.
The apothanasia effect of the test compound was estimated by comparing mean survival time between the medicated group and the control group by the following equation: [formula]

In assay [6] the test system is B-16 melanoma cells. The assay is described as follows: Anti-tumor effect on B-16 melanoma in mice. It counts as in vivo, C57BL/6 female mice. The settings on record: local injection. As to the method: C57BL/6 female mice (12 weeks old, weighing 18.4-21.6 g, each group: 10 animals) were used.
The test drug was prepared by dissolving clavulone-2 in ethanol and diluting with a saline solution in a concentration of clavulone-2 of 100 μg/ml.
B-16 melanoma cells were serially passaged in subcutaneously implanted form in C57BL/6 mice. The tumor cells were dissected out from C57BL/6 mice on 16th day after implantation, weighed, and mixed homogeneously with Hank's solution in a ratio of 1:9 by weight.
Tumor cells (2×10^5 cells/0.05 ml/mouse) were implanted subcutaneously. The test drug (clavulone-2, 10 μg/0.1 ml) was injected locally into tumor cell-implanted site for three weeks except the weekend. Control mice were injected with a vehicle (1% ethanol in saline solution) in the same as above.
After 21 days from the implantation of tumor cells, mice were killed by chloroform anethesia, and the tumor masses were removed and weighed. The anti-tumor effect of clavulone-2 was evaluated by means of growth inhibition rate calculated by the following equation:
Growth inhibition rate (%)=(1-T/C)×100
T: Mean tumor weight of mice treated with the test compound-containing solution
C: Mean tumor weight of mice treated with the vehicle solution.

The mark [7] stands for this setting: 10 μg/0.1 ml, three weeks except weekend, 21 days.

With `COC(=O)CCC(/C=C/C=C1\C(=O)C=CC1(C/C=C\CCCCCOC(C)=O)OC(C)=O)OC(C)=O` (centres unmarked) [Clavulone-5], the inhibition at 3 µg/mL in assay [1] worked out at 0%. In addition, the inhibition at 20 µg/mL in assay [1] was 100%. Also, the “Inhibitory rate (%)” value in assay [2] (Dose 30, on filter paper disc) is recorded as 18.2%; in assay [2] (Dose 100, on filter paper disc), 31.6%. In addition, the “inhibitory effect on proliferation of granulation tissue (in words)” value (from here on “inhibitory effect on proliferation”) in assay [2] is listed as “showed the inhibitory effect on proliferation of granulation tissue”.
As to `COC(=O)CCC(/C=C/C=C1/C(=O)C=CC1(C/C=C\CCCCCOC(C)=O)OC(C)=O)OC(C)=O` (centres unmarked) [Clavulone-4], in assay [1], the inhibition at 3 µg/mL came to 0% and the inhibition at 20 µg/mL came out at 100%. Besides, the “Inhibitory rate (%)” value in assay [2] (Dose 30, on filter paper disc) was found to be 18.3%. Besides, the “Inhibitory rate (%)” value in assay [2] (Dose 100, on filter paper disc) is given as 34.2%. Also, the “inhibitory effect on proliferation” value in assay [2] is recorded as “showed the inhibitory effect on proliferation of granulation tissue”.
Consider `CCCCC/C=C\CC1(OC(C)=O)C=CC(=O)/C1=C/C=C\C(CCC(=O)OC)OC(C)=O` (centres unmarked) [Clavulone-1], for which, in assay [3], the activity at 0.1 µg/mL turned out to be 100%, the activity at 0.4 µg/mL was 24.7% and the activity at 1 µg/mL stood at 0%. Further, in assay [1], the inhibition at 3 µg/mL came to 50% and the inhibition at 20 µg/mL was 100%. Also, in assay [2] (Dose 30, on filter paper disc), the “Inhibitory rate (%)” value stood at 15.8%. Besides, the “Inhibitory rate (%)” value in assay [2] (Dose 100, on filter paper disc) is reported as 30.4%. In assay [2], the “inhibitory effect on proliferation” value was “showed the inhibitory effect on proliferation of granulation tissue”.
`CCCCCCCCC1CCC(=O)C1CCCC(CCC(=O)OC)OC(C)=O` (centres unmarked) [Clavulone-13]: in assay [1], the inhibition at 3 µg/mL worked out at 0% and the inhibition at 30 µg/mL came to 100%.
Turning to `CCCCC/C=C\CC1(OC(C)=O)C=CC(=O)/C1=C/C=C/C(CCC(=O)OC)OC(C)=O` (centres unmarked) [Clavulone-2], in assay [4] (10 mg/kg, intraperitoneal), the “MST” value was found to be 26.5 days, the “Survivors on 60th day/number of mice in one group” value is given as 2/6 and the “I.L.S. (%)” value came to 23%. For the same molecule, the “animals survived 60 days after implantation of tumor cells” value in assay [4] (18 mg/10 ml/kg) is on record as 50%. Further, in assay [4] (18 mg/kg, intraperitoneal), the “MST” value worked out at 50.0 days, the “Survivors on 60th day/number of mice in one group” value is reported as 3/6 and the “I.L.S. (%)” value came out at 133%. The “activity against Ehrlich ascites tumor in vivo (in words)” value in assay [4] (intraperitoneal) is on record as “high activity against Ehrlich ascites tumor in vivo”. In addition, in assay [3], the activity at 0.1 µg/mL came out at 61.5%, the activity at 0.2 µg/mL is 55.4%, the activity at 0.4 µg/mL is 16.9% and the activity at 1 µg/mL amounted to 0%. In assay [1], the inhibition at 3 µg/mL was 0% and the inhibition at 20 µg/mL amounted to 100%. Further, the “Apothanasia effect (%)” value in assay [5] (4.0 mg/kg) is listed as 130%. In addition, in assay [5] (8.0 mg/kg), the “Apothanasia effect (%)” value is 130%. In addition, in assay [6] (setting [7]), the “Growth inhibition rate (%)” value is listed as 73% and the “Mean tumor weight (g; ± S.E.)” value was found to be 0.882 ± 0.388 g. Moreover, the “number of survivors 21th day after implantation of tumor cells” value in assay [6] (10 μg/0.1 ml, group of 10 animals) amounted to 10. For the same molecule, in assay [2] (Dose 30, on filter paper disc), the “Inhibitory rate (%)” value came to 10.1%. In addition, the “Inhibitory rate (%)” value in assay [2] (Dose 100, on filter paper disc) amounted to 21.0%. The “inhibitory effect on proliferation” value in assay [2] is listed as “showed the inhibitory effect on proliferation of granulation tissue”.
In the case of `CCCCC/C=C\CC1(OC(C)=O)C=CC(=O)/C1=C\C=C\C(CCC(=O)OC)OC(C)=O` (centres unmarked) [Clavulone-3], in assay [3], the activity at 0.1 µg/mL turned out to be 87.5%, the activity at 0.2 µg/mL was found to be 52%, the activity at 0.4 µg/mL turned out to be 17.2% and the activity at 1 µg/mL is 0%. In assay [1], the inhibition at 3 µg/mL came to 0% and the inhibition at 20 µg/mL stood at 100%. In addition, in assay [2] (Dose 30, on filter paper disc), the “Inhibitory rate (%)” value is 26.1%. For the same molecule, the “Inhibitory rate (%)” value in assay [2] (Dose 100, on filter paper disc) is 31.0%. Moreover, the “inhibitory effect on proliferation” value in assay [2] is “showed the inhibitory effect on proliferation of granulation tissue”.
With `COC(=O)CCC(/C=C\C=C1\C(=O)C=CC1(C/C=C\CCCCCOC(C)=O)OC(C)=O)OC(C)=O` (centres unmarked) [Clavulone-6], in assay [1], the inhibition at 3 µg/mL was 90%, the inhibition at 20 µg/mL amounted to 100% and the inhibition at 30 µg/mL turned out to be 100%. The “Growth inhibition rate (%)” value in assay [6] (setting [7]) is 73%. Further, the “growth of B-16 melanoma in mice (in words)” value in assay [6] (21 days) is “regressed significantly”.
